From PMC13598332, “Selective activation of tetrodotoxin-sensitive sodium channels by AaH-II drives arrhythmogenic late Na^+ current in the heart” (Europace, 2026)
Where two headings read alike, the source gives them in different places.

Experiments:
hNav1.5 = hNav1.5 (Homo sapiens, UniProt Q14524); format: cell-based; conditions: for Na+ entry through hNav1.5 in action potential-mimicking protocol: 10 μM TTX-subtracted current
hNav1.1 = hNav1.1 (Homo sapiens, UniProt P35498); format: cell-based
hNav1.4 = hNav1.4 (Homo sapiens, UniProt P35499); format: cell-based
hNav1.6 = hNav1.6 (Homo sapiens, UniProt Q9UQD0); format: cell-based
Sequence of hNav1.6 (Q9UQD0 other isoform, or with tags, fused parts or gaps): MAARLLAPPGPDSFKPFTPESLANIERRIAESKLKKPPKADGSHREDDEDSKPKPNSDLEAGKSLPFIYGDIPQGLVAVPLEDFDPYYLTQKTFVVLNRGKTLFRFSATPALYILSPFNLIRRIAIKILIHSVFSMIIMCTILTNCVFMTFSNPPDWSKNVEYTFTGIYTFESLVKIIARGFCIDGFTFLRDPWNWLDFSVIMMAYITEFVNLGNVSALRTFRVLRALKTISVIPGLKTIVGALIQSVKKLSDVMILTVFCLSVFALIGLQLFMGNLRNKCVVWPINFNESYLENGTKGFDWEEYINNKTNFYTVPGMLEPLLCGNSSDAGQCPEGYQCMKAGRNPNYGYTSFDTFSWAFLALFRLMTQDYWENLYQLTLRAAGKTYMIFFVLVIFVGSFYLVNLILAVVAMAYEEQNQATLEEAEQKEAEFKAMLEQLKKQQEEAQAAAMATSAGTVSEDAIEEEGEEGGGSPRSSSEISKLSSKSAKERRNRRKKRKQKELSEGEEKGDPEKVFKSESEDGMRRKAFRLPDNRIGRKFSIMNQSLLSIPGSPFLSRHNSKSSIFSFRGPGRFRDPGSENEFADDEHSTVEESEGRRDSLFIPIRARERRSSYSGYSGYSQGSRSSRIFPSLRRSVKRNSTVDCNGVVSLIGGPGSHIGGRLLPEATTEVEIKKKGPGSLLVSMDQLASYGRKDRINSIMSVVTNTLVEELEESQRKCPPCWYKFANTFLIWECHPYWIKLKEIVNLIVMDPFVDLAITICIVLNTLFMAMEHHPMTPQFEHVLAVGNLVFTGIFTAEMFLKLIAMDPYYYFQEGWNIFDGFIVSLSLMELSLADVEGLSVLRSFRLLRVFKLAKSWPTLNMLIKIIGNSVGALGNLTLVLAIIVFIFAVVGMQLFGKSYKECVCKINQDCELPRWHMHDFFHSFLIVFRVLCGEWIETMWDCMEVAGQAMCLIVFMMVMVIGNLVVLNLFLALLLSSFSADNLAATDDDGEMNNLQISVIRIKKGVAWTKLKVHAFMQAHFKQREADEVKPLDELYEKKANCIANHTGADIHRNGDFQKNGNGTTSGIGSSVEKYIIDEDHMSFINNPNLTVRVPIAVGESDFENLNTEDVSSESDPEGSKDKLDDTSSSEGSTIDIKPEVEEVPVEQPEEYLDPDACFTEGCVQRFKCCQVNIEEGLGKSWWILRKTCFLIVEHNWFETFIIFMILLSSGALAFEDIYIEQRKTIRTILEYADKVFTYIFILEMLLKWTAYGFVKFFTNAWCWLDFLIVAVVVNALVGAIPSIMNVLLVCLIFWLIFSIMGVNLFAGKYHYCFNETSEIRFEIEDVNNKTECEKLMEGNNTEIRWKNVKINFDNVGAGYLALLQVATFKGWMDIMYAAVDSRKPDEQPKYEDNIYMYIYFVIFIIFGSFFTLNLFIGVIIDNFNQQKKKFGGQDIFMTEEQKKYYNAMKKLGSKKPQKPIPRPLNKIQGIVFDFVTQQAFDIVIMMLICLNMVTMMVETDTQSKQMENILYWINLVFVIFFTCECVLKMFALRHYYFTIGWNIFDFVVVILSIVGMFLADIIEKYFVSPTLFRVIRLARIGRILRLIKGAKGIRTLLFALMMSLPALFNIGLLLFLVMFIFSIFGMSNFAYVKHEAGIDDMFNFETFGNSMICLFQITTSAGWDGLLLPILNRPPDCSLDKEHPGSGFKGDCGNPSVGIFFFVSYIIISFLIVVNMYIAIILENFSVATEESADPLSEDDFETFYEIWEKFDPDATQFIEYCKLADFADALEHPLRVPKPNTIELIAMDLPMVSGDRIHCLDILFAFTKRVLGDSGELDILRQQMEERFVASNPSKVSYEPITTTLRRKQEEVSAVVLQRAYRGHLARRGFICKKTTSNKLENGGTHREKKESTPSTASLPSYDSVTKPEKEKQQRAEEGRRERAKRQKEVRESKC

[1] = test system: adult rat ventricular myocytes; format: cell-based; conditions: HP −120 mV, 1-s pulse to −20 mV
[2] = test system: human iPS-derived ventricular cardiomyocytes; format: cell-based; conditions: 0.1 nM; dynamic clamp, 1.43 Hz, 35–37°C; n = 10
[3] = test system: adult rat ventricular cardiomyocytes; assay: Calcium imaging (SCR events) in isolated rat cardiomyocytes; format: cell-based
Procedure: Eleven-week-old Wistar Han rats were euthanized by intraperitoneal (i.p.) injection of a lethal dose of pentobarbital (140 mg/kg, Euthasol®). Subsequently, the hearts were quickly excised and rinsed in cold calcium-free Tyrode solution with the following composition (in mM): 118 NaCl, 4.17 KCl, 1.2 MgSO4, 1.2 KH2PO4, 21 NaHCO3, 11 glucose, and 5 taurine, at pH 7.4. The aorta was promptly cannulated, and the hearts were perfused in a retrograde fashion with warm (37–38°C) Tyrode containing 1.25 mM CaCl2 to flush the coronary arteries of blood and then with a Tyrode solution supplemented with 1 mg/mL collagenase type 2 (Worthington Biochemical Corp, Lakewood, NJ) and 0.2 U.mL^−1 protease type XIV (Sigma, Poole, UK) during 15–20 min. Once enzymatic digestion is completed, ventricles were shredded into small pieces with surgical scissors in 0.5 mM Ca^2+ Tyrode solution, filtered through a 200-µm mesh, and then resuspended in 1 mM Ca^2+ Tyrode solution for 1 h at RT. Isolated cardiomyocytes were incubated in the dark with Fura-2-AM calcium probe (2 µM in 20% v/v DMSO; Life Technologies) for 15 min. Cardiomyocytes were then loaded onto the IonOptix system (IonOptix Corporation, U.S.A.) and perfused with warm (37°C) Tyrode solution. Cardiomyocytes were stimulated at 0.5 Hz using a MyoPacer field stimulator (20 V, 7 ms) to achieve steady state. Fura-2 fluorescence (F) at 510 nm was used to measure cytoplasmic Ca^2+ concentration variation by exciting with UV light at 340 and 380 nm. Cells were paced for 1 to 2 min, ensuring stabilization of the signals, and the effects of the peptides were measured at the end of a 5 min application time. 30-s-long periods were used as the unit duration (representing 15 Ca^2+ transients) during control and after the perfusion of the compound to count the number of arrhythmogenic transients.

Wistar-Han rats = format: in vivo, rat; conditions: for QTc / RR / P wave / PR / QRS / T wave area: mean ± SEM
[4] = highest effective AaH-II* concentration
[5] = representative traces, test 0 mV

Sequence of hNav1.5 (Q14524 other isoform, or with tags, fused parts or gaps): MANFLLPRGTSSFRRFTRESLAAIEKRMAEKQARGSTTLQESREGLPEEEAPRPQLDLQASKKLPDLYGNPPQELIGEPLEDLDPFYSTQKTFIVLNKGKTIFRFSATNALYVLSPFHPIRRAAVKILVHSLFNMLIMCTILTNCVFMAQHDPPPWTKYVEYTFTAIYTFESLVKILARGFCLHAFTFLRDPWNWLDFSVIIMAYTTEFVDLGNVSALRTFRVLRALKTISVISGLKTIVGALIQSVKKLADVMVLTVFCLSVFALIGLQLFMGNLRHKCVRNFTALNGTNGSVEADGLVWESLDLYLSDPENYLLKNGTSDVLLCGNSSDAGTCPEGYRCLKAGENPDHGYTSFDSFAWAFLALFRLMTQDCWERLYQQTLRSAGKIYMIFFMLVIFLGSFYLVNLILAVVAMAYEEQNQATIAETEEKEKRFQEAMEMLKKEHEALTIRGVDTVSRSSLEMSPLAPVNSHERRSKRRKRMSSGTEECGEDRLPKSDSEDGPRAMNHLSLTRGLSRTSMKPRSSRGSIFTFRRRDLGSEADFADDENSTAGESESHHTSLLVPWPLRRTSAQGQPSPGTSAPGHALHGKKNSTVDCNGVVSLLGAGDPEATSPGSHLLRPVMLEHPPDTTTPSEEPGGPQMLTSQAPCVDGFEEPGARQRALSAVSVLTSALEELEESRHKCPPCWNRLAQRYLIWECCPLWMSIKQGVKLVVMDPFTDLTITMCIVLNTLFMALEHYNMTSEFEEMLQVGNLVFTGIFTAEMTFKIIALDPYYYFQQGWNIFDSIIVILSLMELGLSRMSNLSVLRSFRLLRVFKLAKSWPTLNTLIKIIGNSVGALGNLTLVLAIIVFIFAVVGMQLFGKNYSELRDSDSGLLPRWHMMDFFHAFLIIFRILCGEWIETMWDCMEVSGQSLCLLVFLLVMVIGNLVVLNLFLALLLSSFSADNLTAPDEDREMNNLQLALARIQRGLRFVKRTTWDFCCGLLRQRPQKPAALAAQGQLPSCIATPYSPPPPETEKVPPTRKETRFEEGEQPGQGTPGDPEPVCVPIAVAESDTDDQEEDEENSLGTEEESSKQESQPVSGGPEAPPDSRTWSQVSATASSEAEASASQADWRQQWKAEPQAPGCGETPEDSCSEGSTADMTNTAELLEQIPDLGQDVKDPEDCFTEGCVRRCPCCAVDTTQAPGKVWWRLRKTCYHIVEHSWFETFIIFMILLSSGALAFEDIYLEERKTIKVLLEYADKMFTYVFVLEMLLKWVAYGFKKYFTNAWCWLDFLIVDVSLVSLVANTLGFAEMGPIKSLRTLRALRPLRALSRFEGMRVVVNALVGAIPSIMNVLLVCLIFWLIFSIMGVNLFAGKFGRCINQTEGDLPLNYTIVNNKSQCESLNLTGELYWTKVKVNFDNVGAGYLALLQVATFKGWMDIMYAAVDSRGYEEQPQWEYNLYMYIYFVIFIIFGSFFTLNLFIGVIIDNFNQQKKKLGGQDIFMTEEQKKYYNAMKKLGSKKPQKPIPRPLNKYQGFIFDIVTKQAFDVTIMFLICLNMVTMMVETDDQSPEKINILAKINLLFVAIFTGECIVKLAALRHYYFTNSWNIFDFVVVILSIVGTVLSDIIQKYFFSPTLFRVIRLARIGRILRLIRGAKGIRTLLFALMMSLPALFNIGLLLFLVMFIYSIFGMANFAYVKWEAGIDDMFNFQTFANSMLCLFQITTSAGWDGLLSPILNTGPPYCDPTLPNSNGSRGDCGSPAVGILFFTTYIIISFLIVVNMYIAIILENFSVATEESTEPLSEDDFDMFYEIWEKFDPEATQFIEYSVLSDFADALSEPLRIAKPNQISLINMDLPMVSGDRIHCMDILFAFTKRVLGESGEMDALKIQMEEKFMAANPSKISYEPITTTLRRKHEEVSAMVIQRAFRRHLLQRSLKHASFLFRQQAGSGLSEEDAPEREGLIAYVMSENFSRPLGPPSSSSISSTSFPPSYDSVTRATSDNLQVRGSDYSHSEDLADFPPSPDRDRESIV

CC[C@H](C)[C@H](NC(=O)[C@H](Cc1ccc(O)cc1)NC(=O)CNC(=O)[C@H](CC(=O)O)NC(=O)[C@H](CCCCN)NC(=O)[C@@H](N)C(C)C)C(=O)N[C@H](C(=O)N[C@@H](CC(=O)O)C(=O)N[C@@H](CC(=O)O)C(=O)N[C@H](C(=O)N[C@@H](CC(N)=O)C(=O)N[C@H]1CSSC[C@@H](C(=O)N[C@@H](Cc2c[nH]cn2)C(N)=O)NC(=O)[C@H](CCCCN)NC(=O)CNC(=O)[C@@H]2CCCN2C(=O)CNC(=O)[C@H](CCCCN)NC(=O)[C@H]([C@@H](C)O)NC(=O)[C@H](CCCNC(=N)N)NC(=O)[C@H](C(C)C)NC(=O)[C@H](Cc2c[nH]cn2)NC(=O)[C@H](CC(=O)O)NC(=O)[C@@H]2CCCN2C(=O)[C@H](CC(C)C)NC(=O)[C@H](CCCCN)NC(=O)[C@H](Cc2ccc(O)cc2)NC(=O)[C@@H]2CSSC[C@@H]3NC(=O)[C@H](CCC(=O)O)NC(=O)[C@H](CCC(=O)O)NC(=O)[C@H](CC(N)=O)NC(=O)[C@@H]4CSSC[C@H](NC(=O)[C@H](C)NC(=O)[C@H](CC(N)=O)NC(=O)CNC(=O)[C@H](Cc5ccc(O)cc5)NC(=O)[C@@H]5CCCN5C(=O)[C@H](CO)NC(=O)[C@H](C)NC(=O)[C@H](Cc5c[nH]c6ccccc56)NC(=O)[C@H](CCC(N)=O)NC(=O)[C@H](CSSC[C@H](NC(=O)[C@H](Cc5ccccc5)NC(=O)[C@H](Cc5ccc(O)cc5)NC(=O)[C@H]([C@@H](C)O)NC1=O)C(=O)NCC(=O)N[C@@H](CCCNC(=N)N)C(=O)N[C@@H](CC(N)=O)C(=O)N[C@@H](C)C(=O)N[C@@H](Cc1ccc(O)cc1)C(=O)N4)NC(=O)[C@H](Cc1ccc(O)cc1)NC(=O)CNC(=O)[C@H](CO)NC(=O)[C@H](CCC(=O)O)NC(=O)CNC(=O)[C@H](CCCCN)NC(=O)[C@H](CC(C)C)NC(=O)[C@H](CCCCN)NC(=O)[C@H]([C@@H](C)O)NC3=O)C(=O)N[C@@H](Cc1ccc(O)cc1)C(=O)N2)C(C)C)C(C)C [AaH-II*]
Na+ entry through hNav1.5 in action potential-mimicking protocol (hNav1.5; 0.1 nM): indistinguishable from the control condition
Na+ entry through hNav1.5 in action potential-mimicking protocol (hNav1.5; 10 nM): capable of generating a measurable Na^+ current
INaL after 1 s depolarization (hNav1.5; hNav1.5, 10 nM): absence of AaH-II*-mediated INaL after 1 s depolarization
shift in voltage-dependence of activation (hNav1.5; hNav1.5, 10 nM): lack of shift in the voltage-dependence of activation and inactivation
maximal INaL stimulation (maximal AUC) (hNav1.5; hNav1.5, highest effective AaH-II* concentration): ~19 fold
concentration at which INaL is triggered / becomes noticeable (hNav1.5; hNav1.5, representative traces, test 0 mV): 0.3 nM
INaL after 1 s depolarization (hNav1.1; 10 nM): maintained INaL after 1 s pulse
shift in voltage-dependence of activation (hNav1.1; 10 nM): large AaH-II*-triggered hyperpolarizing shift in voltage-dependence of activation
maximal INaL stimulation (maximal AUC) (hNav1.1; [4]): ~19 fold
concentration at which INaL is triggered / becomes noticeable (hNav1.1; [5]): 0.1 nM
INaL after 1 s depolarization (hNav1.4; 10 nM): lack of effects of AaH-II* on those two parameters
shift in voltage-dependence of activation (hNav1.4; 10 nM): lack of effects of AaH-II* on those two parameters
maximal INaL stimulation (maximal AUC) (hNav1.4; [4]): six
concentration at which INaL is triggered / becomes noticeable (hNav1.4; [5]): 0.3 nM
activation of hNav1.6 current incl. INaL after TTX block (hNav1.6; 10 nM AaH-II* applied after 100 nM TTX): failed to activate any form of current
INaL after 1 s depolarization (hNav1.6; hNav1.6, 10 nM): maintained INaL after 1 s pulse
shift in voltage-dependence of activation (hNav1.6; hNav1.6, 10 nM): large AaH-II*-triggered hyperpolarizing shift in voltage-dependence of activation
concentration at which INaL is triggered / becomes noticeable (hNav1.6; hNav1.6, representative traces, test 0 mV): 0.1 nM
AUC and INaL at 1 s depolarization ([1]; 0.1 nM, n = 6 cardiomyocytes): half of the cells responded with an increased AUC and INaL
peak current amplitude ([1]; 0.1 nM, n = 6 cardiomyocytes): None of the cells witnessed an increase in peak current amplitude
AUC and INaL at 1 s depolarization ([1]; 10 nM): significant increase in AUC and INaL in all cells recorded
AP duration APD20, APD50, APD90 [2]: increase the AP duration
maximal diastolic potential, AP amplitude, dV/dtmax [2]: not significantly affected
average frequency of SCR events ([3]; 0.1 nM AaH-II*): 14 SCR/min
cells presenting SCR events (SCR cells / cells) ([3]; 0.1 nM peptide, 0.5 Hz pacing, 37°C, 5 min application): 13 out of 23
calcium transient amplitude and time to peak ([3]; 1 or 3 nM AaH-II*): slightly reduce the amplitude of the calcium transients and slow the time to peak
arrhythmic rats (rats / all rats) (Wistar-Han rats; AaH-II* 3 μg/kg i.v.): none of the rats were arrhythmic
QTc (Wistar-Han rats; AaH-II* 3 µg/kg i.v., QTc = QT/(RR/100)^1/2, n = 5): 54.9 ± 5.2
RR (Wistar-Han rats; AaH-II* 3 µg/kg i.v., anaesthetized rats, lead I, n = 5): 153.7 ± 5.6 ms
P wave (Wistar-Han rats; AaH-II* 3 µg/kg i.v., n = 5): 17.5 ± 0.3 ms
PR (Wistar-Han rats; AaH-II* 3 µg/kg i.v., n = 5): 47.5 ± 1.4 ms
QRS (Wistar-Han rats; AaH-II* 3 µg/kg i.v., n = 5): 16.9 ± 1.0 ms
T wave area (Wistar-Han rats; AaH-II* 3 µg/kg i.v., n = 5): 1.8 ± 0.5 mV/ms
rats with A-V blocks/ PVCs (rats / all rats) (Wistar-Han rats; AaH-II* 15 μg/kg i.v.): in all rats
P wave (Wistar-Han rats; AaH-II* 15 µg/kg i.v., n = 6): 18.0 ± 0.8 ms
PR (Wistar-Han rats; AaH-II* 15 µg/kg i.v., n = 6): 53.2 ± 5.4 ms
QRS (Wistar-Han rats; AaH-II* 15 µg/kg i.v., n = 6): 18.0 ± 0.6 ms
RR (Wistar-Han rats; AaH-II* 15 µg/kg i.v., n = 6): 181.6 ± 2.7 ms
T wave area (Wistar-Han rats; AaH-II* 15 µg/kg i.v., n = 6): 3.2 ± 0.5 mV/ms
P wave (Wistar-Han rats; AaH-II* 30 µg/kg i.v., n = 6): 18.9 ± 0.8 ms
PR (Wistar-Han rats; AaH-II* 30 µg/kg i.v., n = 6): 53.8 ± 2.2 ms
QRS (Wistar-Han rats; AaH-II* 30 µg/kg i.v., n = 6): 17.8 ± 0.3 ms
QTc (Wistar-Han rats; AaH-II* 30 µg/kg i.v., n = 6): 69.5 ± 3.3
RR (Wistar-Han rats; AaH-II* 30 µg/kg i.v., n = 6): 176.8 ± 12.3 ms
T wave area (Wistar-Han rats; AaH-II* 30 µg/kg i.v., n = 6): 8.1 ± 1.9 mV/ms
